Assay results published in PMC12516689, “Stimuli-Responsive Hydrogels from Liquid–Liquid Phase Separations of FUS-Derived Peptides” (ACS Applied Materials & Interfaces, 2025).

Assays:
[1] = Rheological studies of hydrogels as a function of temperature; type: physicochemical; details: amplitude 0.1%, frequency 1 Hz; for G′ (storage modulus) upon cooling back to 4 °C / G′ (storage modulus) upon heating to 80 °C / G′ (storage modulus), initial value at 4 °C: 2 wt % hydrogel in PBS; for G′ (storage modulus) upon cooling back to 4 °C: after cooling ramp 80 to 4 °C; for G′ (storage modulus) upon heating to 80 °C: end of heating ramp 4 to 80 °C; for G′ (storage modulus), initial value at 4 °C: start of heating ramp 4 to 80 °C
Experimental: Rheological measurements of freshly preformed hydrogels (1000 μL) were performed with a rotational controlled-stress Haake Mars 40 rheometer (Thermo Fisher, Germany) by using a 3.5 cm diameter flat-plate geometry (P35/TI) with a gap of 0.5 mm. The analyses were conducted at different temperatures increasing from 4 to 80 °C and then decreasing from 80 to 4 °C. Amplitude (γ) was set at 0.1% and Frequency 1 Hz. G′ (storage modulus) and G″ (loss modulus) are reported as a function of the temperature.
To study the mechanical behavior of the matrices, hydrogels from L1-L2-L3 and L1-L2 sequences were subjected to rheological measurements. The storage (G′) and loss (G″) moduli, two key parameters describing the viscoelastic behavior of materials, were studied as a function of the temperature. Measurements were conducted across the entire temperature range, increasing from 4 to 80 °C and subsequently decreasing from 80 to 4 °C. […] However, the heating/cooling process induced significant increase in the rigidity of both samples. […] For the L1-L2 sample, the initial values of G′ at these temperatures were 1 Pa at 4 °C, 32 Pa at 80 °C, and 7314 Pa upon cooling back at 4 °C. To enhance the hydrogel disaggregation response to temperature increase, we adopted a design strategy focused on incorporating disruptive elements into the peptide sequences. This approach stems from the insights that the L3 sequence has the potential to inhibit the aggregation of the multi-LARK peptides. Following this rationale, we initially synthesized a multi-LARK sequence made of L3-L2-L3 LCDs (Figure S13a).

[2] = Hydrogel formation, inverted test tube analysis; type: physicochemical; details: for Concentration at which self-supporting hydrogel is obtained: sonication
Experimental: Peptide solutions were dissolved in PBS at concentrations varying from 2.0 μM to 2.0 mM. To allow a complete dissolution, samples were sonicated for 15 min. Hydrogels were prepared by adding PBS to the peptide powder to a final concentration of 2 or 3 wt %. After sonication, samples were stored at 4 °C overnight and the hydrogel formation was macroscopically evaluated through inverted test tube analyses.
Self-supporting hydrogels of L1-L2 and of L1-L2-L3 were obtained starting from a concentration of 2 wt % when 10 mM PBS was used in place of water (inverted test tube, Figure a). […] From a biomedical perspective, achieving gelation at lower peptide concentrations is highly desirable to minimize potential cytotoxicity and facilitate in vivo applications. […] This sequence, in comparison to the L1 and L2 motifs, features a higher content of glycine residues and a single tyrosine, while L1 and L2 each contain two. The different behavior of L3 might therefore arise from a reduced number of π–π stacking interactions, a known driving factor in the gelation process, or the higher entropic cost associated with glycine residues.

[3] = Hydrogel stability in contact with acidic and basic solutions; type: physicochemical; details: preformed hydrogels, room temperature, macroscopically observed up to 7 days
Experimental: To address the impact of the primary sequence on the hydrogel’s sensitivity to external stimuli, their mechanical behavior as a response to pH and temperature triggers was tested. Preformed L1-L2 and L1-L2-L3 hydrogels were put in contact with both acidic (pH 5) and basic (pH 10) solutions at room temperature and were macroscopically observed over time up to 7 days. […] This behavior can be rationalized considering that the presence of ionizable acidic or basic amino acids typically drives pH-responsive properties in peptide-based systems. In our case, the sequences contain only a single acidic residue (Asp, D), which is located within the linker region rather than in the LARKS domains considered to be responsible for driving the gelation process.

[4] = Critical aggregation concentration (CAC) by intrinsic self-fluorescence; type: physicochemical; details: 10 mM PBS pH 7.4, no external probe, excitation 310 nm, emission intensity at 407 or 417 nm vs concentration, break point, 20 °C
Experimental: A Shimadzu RF-6000 (Kyoto, Japan) spectrofluorometer was used to perform fluorescence measurements. Samples were placed in a 10.0 mm × 5.00 mm quartz cell and the settings used for the measurement were excitation and emission bandwidths of 2.5 nm and temperature of 20 °C. The critical aggregation concentration (CAC) of the peptides was estimated through the evaluation of the self-fluorescence behavior of the peptides. After excitation at 310 nm, the intensity of the emission band at 407 or 417 nm was checked and plotted as a function of concentration. Spectra were also recorded in excitation mode.
The ability of the multi-LARKS to self-assemble was evaluated in physiological buffer conditions (10 mM PBS, pH 7.4). Critical aggregation concentrations (CACs), designated as the minimum concentrations at which they spontaneously self-assemble, were assessed in the absence of any external fluorescence probe and by detecting the nonaromatic intrinsic self-fluorescence at increasing peptide concentrations. […] All the multi-LARK sequences here studied presented a near-UV emission, with a maximum of excitation at 310 nm.
By plotting the fluorescence intensity at the maximum emission wavelength as a function of concentration, CAC values, calculated at the break point, resulted 128 μM, 236 μM, 153 μM and 175 μM for L1-L2-L3, L1-L2, L1-L3, and L2-L3, respectively (see Table S2). […]

[5] = Aggregation kinetics followed by self-fluorescence in microplate reader; type: physicochemical; details: 2.0 mM peptide in PBS; λex 355 nm, emission 460 nm over 300 h; 96-well plate, orbital shake 200 rpm; triplicate
Experimental: Aggregation kinetics of peptide samples at 2.0 mM were followed by using a FLUOstar Omega (BMG LABTECH) microplate reader. Aliquots of 100 μL of each sample were placed in wells of a 96-well plate and covered with an aluminum foil to avoid evaporation of the solvent. Experimental settings were: λex = 355 nm, gain 1000, bottom optic, orbital shake 200 rpm between readings. Emission intensity at 460 nm was recorded over 300 h and subtracted for the blank. Experiments were conducted in triplicate.
The aggregation kinetics of the four multi-LARK sequences were monitored using fluorescence experiments, by exploiting the photoemissive behavior of the peptides in the blue field. As the fluorescence emission of these sequences require the aggregation state, as shown by the analyses conducted in solution, it represents a convenient probe of the self-assembly process. Upon excitation at 355 nm of 2.0 mM peptide solutions, the emission at 460 nm was recorded across a 300 h period (Figure S9). By reporting the fluorescence intensity as a function of time, we observed consistent trends across the four multi-LARKS samples, characterized by three different kinetic phases. […] This lag-phase was followed by a linear increase of the fluorescence signal at 460 nm in a relatively short period for all the samples (between 5 and 30 h) except in the case of L1-L2, where this second phase was longer (∼80 h). […]

[6] = dissolved in water, overnight incubation at 4 °C; ref Eisenberg and co-workers; cited from earlier work

Substance | G′ (storage modulus) upon cooling back to 4 °C [1] | G′ (storage modulus) upon heating to 80 °C [1] | G′ (storage modulus), initial value at 4 °C [1] | Concentration at which self-supporting hydrogel is obtained ([2]; 10 mM PBS, overnight at 4 °C) | Critical aggregation concentration (CAC) [4] | Lag-phase duration (constant fluorescence intensity) of aggregation kinetics [5] | Hydrogel stability to acidic (pH 5) and basic (pH 10) solutions [3] | other results
Ac-SYGGYSGDTSYSSYGQS-NH2 [L1*-L2] | 154332 Pa | 497 Pa | 818 Pa | 2 wt % |  |  |  | 
Ac-SYSGYSGDTSYSSYGQS-NH2 [L1-L2] |  |  |  |  |  |  | No significant variations | Emission maximum of aggregation-induced fluorescence: 400 nm
Ac-STGGYGGDTSYSSYGQSNGPSTGGYG-NH2 [L3-L2-L3] |  |  |  |  |  |  |  | Hydrogel formation ([2]; concentrations ranging from 2 to 5 wt %): unable to form hydrogels
Ac-STGGYSGDTSYSSYGQS-NH2 [L1**-L2] |  |  |  | 3 wt % |  |  |  | Temperature at which hydrogel undergoes breakdown (unable to reform upon cooling) ([1]; 3 wt % hydrogel in PBS, heating 4 to 80 °C): 55 °C

Continued, in another order:

G′ (storage modulus) upon cooling back to 4 °C [1] | G′ (storage modulus) upon heating to 80 °C [1] | G′ (storage modulus), initial value at 4 °C [1] | Concentration at which self-supporting hydrogel is obtained ([2]; 10 mM PBS, overnight at 4 °C) | Critical aggregation concentration (CAC) [4] | Lag-phase duration (constant fluorescence intensity) of aggregation kinetics [5] | Substance | Hydrogel stability to acidic (pH 5) and basic (pH 10) solutions [3] | other results
75762 Pa | 4708 Pa | 1967 Pa | ≥ 2 wt % | 128 µM | ~50 h | Ac-SYSGYSGDTSYSSYGQSNGPSTGGYG-NH2 [L1-L2-L3] | No significant variations | Concentration at which hydrogel forms in water [6]: 5 wt %
 |  |  |  | 153 µM | ~50 h | Ac-SYSGYSNGPSTGGYG-NH2 [L1-L3] |  | Hydrogel formation ([2]; 10 mM PBS, overnight at 4 °C): no gel formation
